The test system of test [1] is Aspergillus flavus. In words: Expected efficacy of antifungal agents. Conditions: expected efficacy against Aspergillus flavus.
Test [2] concerns Aspergillus fumigatus. In words: Expected efficacy of antifungal agents. Conditions: expected efficacy against Aspergillus fumigatus.
In test [3] the test system is Aspergillus niger. In words: Expected efficacy of antifungal agents. Conditions: expected efficacy against Aspergillus niger.
The subject of test [4] is Aspergillus terreus. In words: Expected efficacy of antifungal agents. Conditions: expected efficacy against Aspergillus terreus.
Test [5] concerns Blastomyces dermatitidis. In words: Expected efficacy of antifungal agents. The conditions noted are these: expected efficacy against Blastomyces dermatitidis.
For test [6], the system named is Candida species. Briefly: Expected efficacy of antifungal agents. Conditions: expected efficacy against Candida species.
Test [7] has as its system Coccidioides immitis. The conditions noted are these: expected efficacy against Coccidioides immitis.
For test [8], the system named is Cryptococcus neoformans. In words: Expected efficacy of antifungal agents. Conditions: expected efficacy against Cryptococcus neoformans.
In test [9] the test system is Histoplasma capsulatum. Conditions: expected efficacy against Histoplasma capsulatum.
In test [10] the test system is Leishmania donovani. In words: Expected efficacy of antifungal agents. The conditions noted are these: expected efficacy against Leishmania donovani.
The test system of test [11] is Leishmania infantum. Briefly: Expected efficacy of antifungal agents. Conditions: expected efficacy against Leishmania infantum.
Test [12] has as its system Paracoccidioides brasiliensis. In words: Expected efficacy of antifungal agents. The conditions noted are these: expected efficacy against Paracoccidioides brasiliensis.
In test [13] the test system is gram-positive staphylococci and streptococci. The conditions noted are these: background description of the drug; cited from earlier work.
Test [14] deals with Bacteroides fragilis. In words: Expected efficacy of antibiotic agents. Conditions: expected efficacy against Bacteroides fragilis.
Test [15] has as its system Clostridium difficile. Briefly: Expected efficacy of antibiotic agents. The conditions noted are these: expected efficacy against Clostridium difficile.
Test [16] relates to Clostridium perfringens.
Test [17] has as its system Chlamydia pneumoniae. Briefly: Expected efficacy of antibiotic agents. Conditions: expected efficacy against Chlamydia pneumoniae.
The subject of test [18] is Chlamydia psittaci.
Test [19] concerns Chlamydia trachomatis. In words: Expected efficacy of antibiotic agents. The conditions noted are these: expected efficacy against Chlamydia trachomatis.
For test [20], the system named is Mycoplasma pneumoniae. In words: Expected efficacy of antibiotic agents. The conditions noted are these: expected efficacy against Mycoplasma pneumoniae.
In test [21] the test system is Acinetobacter baumannii. In words: Expected efficacy of antibiotic agents. The conditions noted are these: expected efficacy against Acinetobacter baumannii.
Test [22] deals with Acinetobacter calcoaceticus. Briefly: Expected efficacy of antibiotic agents. The conditions noted are these: expected efficacy against Acinetobacter calcoaceticus.
Test [23] relates to Acinetobacter lwoffii. Briefly: Expected efficacy of antibiotic agents. The conditions noted are these: expected efficacy against Acinetobacter lwoffii.
Test [24] deals with Bartonella bacilliformis. In words: Expected efficacy of antibiotic agents. The conditions noted are these: expected efficacy against Bartonella bacilliformis.
Test [25] has as its system Bordetella pertussis. Briefly: Expected efficacy of antibiotic agents. Conditions: expected efficacy against Bordetella pertussis.
Test [26] deals with Brucella species.
Test [27] has as its system Campylobacter jejuni. Briefly: Expected efficacy of antibiotic agents. The conditions noted are these: expected efficacy against Campylobacter jejuni.
In test [28] the test system is Citrobacter diversus. Briefly: Expected efficacy of antibiotic agents. The conditions noted are these: expected efficacy against Citrobacter diversus.
The test system of test [29] is Citrobacter freundii. In words: Expected efficacy of antibiotic agents. The conditions noted are these: expected efficacy against Citrobacter freundii.
Test [30] has as its system Enterobacter aerogenes. In words: Expected efficacy of antibiotic agents. The conditions noted are these: expected efficacy against Enterobacter aerogenes.
In test [31] the test system is Enterobacter cloacae. In words: Expected efficacy of antibiotic agents. The conditions noted are these: expected efficacy against Enterobacter cloacae.
Test [32] deals with Enterobacter sakazakii. Briefly: Expected efficacy of antibiotic agents. The conditions noted are these: expected efficacy against Enterobacter sakazakii.
For test [33], the system named is Escherichia coli. Briefly: Expected efficacy of antibiotic agents. The conditions noted are these: expected efficacy against Escherichia coli.
Test [34] has as its system Francisella tularensis.
Test [35] concerns Haemophilus ducreyi. In words: Expected efficacy of antibiotic agents. The conditions noted are these: expected efficacy against Haemophilus ducreyi.
Test [36] deals with Haemophilus influenzae. Briefly: Expected efficacy of antibiotic agents. Conditions: expected efficacy against Haemophilus influenzae.
Test [37] concerns Haemophilus parainfluenzae. In words: Expected efficacy of antibiotic agents. Conditions: expected efficacy against Haemophilus parainfluenzae.
For test [38], the system named is Klebsiella (Calymmatobacterium) granulomatis. In words: Expected efficacy of antibiotic agents. The conditions noted are these: expected efficacy against Klebsiella (Calymmatobacterium) granulomatis.
For test [39], the system named is Klebsiella oxytoca. In words: Expected efficacy of antibiotic agents. The conditions noted are these: expected efficacy against Klebsiella oxytoca.
Test [40] deals with Klebsiella pneumoniae. In words: Expected efficacy of antibiotic agents. Conditions: expected efficacy against Klebsiella pneumoniae.
Test [41] relates to Legionella pneumophila.
For test [42], the system named is Moraxella catarrhalis. Briefly: Expected efficacy of antibiotic agents. Conditions: expected efficacy against Moraxella catarrhalis.
Test [43] concerns Morganella morganii. In words: Expected efficacy of antibiotic agents. Conditions: expected efficacy against Morganella morganii.
The subject of test [44] is Neisseria gonorrhoeae. Briefly: Expected efficacy of antibiotic agents. Conditions: expected efficacy against Neisseria gonorrhoeae.
Test [45] has as its system Neisseria meningitidis. Briefly: Expected efficacy of antibiotic agents. The conditions noted are these: expected efficacy against Neisseria meningitidis.
Test [46] has as its system Proteus mirabilis. In words: Expected efficacy of antibiotic agents. Conditions: expected efficacy against Proteus mirabilis.
The subject of test [47] is Proteus vulgaris. In words: Expected efficacy of antibiotic agents. The conditions noted are these: expected efficacy against Proteus vulgaris.
The subject of test [48] is Providencia rettgeri. In words: Expected efficacy of antibiotic agents. The conditions noted are these: expected efficacy against Providencia rettgeri.
For test [49], the system named is Providencia stuartii. In words: Expected efficacy of antibiotic agents. Conditions: expected efficacy against Providencia stuartii.
The test system of test [50] is Pseudomonas aeruginosa. In words: Expected efficacy of antibiotic agents. Conditions: expected efficacy against Pseudomonas aeruginosa.
The test system of test [51] is Pseudomonas fluorescens. In words: Expected efficacy of antibiotic agents. Conditions: expected efficacy against Pseudomonas fluorescens.
Test [52] concerns Rickettsiae.
The subject of test [53] is Salmonella typhi. In words: Expected efficacy of antibiotic agents. The conditions noted are these: expected efficacy against Salmonella typhi.
The subject of test [54] is Serratia marcescens. In words: Expected efficacy of antibiotic agents. Conditions: expected efficacy against Serratia marcescens.
Test [55] relates to Shigella boydii. Briefly: Expected efficacy of antibiotic agents. The conditions noted are these: expected efficacy against Shigella boydii.
Test [56] has as its system Shigella dysenteriae. Briefly: Expected efficacy of antibiotic agents. The conditions noted are these: expected efficacy against Shigella dysenteriae.
Test [57] deals with Shigella flexneri. Briefly: Expected efficacy of antibiotic agents. Conditions: expected efficacy against Shigella flexneri.
Test [58] concerns Shigella sonnei. In words: Expected efficacy of antibiotic agents. The conditions noted are these: expected efficacy against Shigella sonnei.
Test [59] concerns Vibrio cholerae. In words: Expected efficacy of antibiotic agents. The conditions noted are these: expected efficacy against Vibrio cholerae.
Test [60] has as its system Yersinia pestis.
In test [61] the test system is Corynebacterium jeikeium. Briefly: Expected efficacy of antibiotic agents. Conditions: expected efficacy against Corynebacterium jeikeium.
Test [62] relates to Corynebacterium urealyticum. Briefly: Expected efficacy of antibiotic agents. The conditions noted are these: expected efficacy against Corynebacterium urealyticum.
Test [63] has as its system Diphtheroids. Briefly: Expected efficacy of antibiotic agents. The conditions noted are these: expected efficacy against Diphtheroids.
The subject of test [64] is Enterococcus faecalis. Briefly: Expected efficacy of antibiotic agents. Conditions: expected efficacy against Enterococcus faecalis.
Test [65] deals with Enterococcus faecium. Briefly: Expected efficacy of antibiotic agents. The conditions noted are these: expected efficacy against Enterococcus faecium.
Test [66] deals with Methicillin resistant staph aureus (MRSA). In words: Expected efficacy of antibiotic agents. The conditions noted are these: expected efficacy against Methicillin resistant staph aureus (MRSA).
Test [67] relates to Peptostreptococcus. Briefly: Expected efficacy of antibiotic agents. The conditions noted are these: expected efficacy against Peptostreptococcus.
In test [68] the test system is Staphylococcus aureus (MSSA). In words: Expected efficacy of antibiotic agents. Conditions: expected efficacy against Staphylococcus aureus (MSSA).
The subject of test [69] is Staphylococcus epidermidis. Briefly: Expected efficacy of antibiotic agents. Conditions: expected efficacy against Staphylococcus epidermidis.
The subject of test [70] is Streptococcus agalactiae. Briefly: Expected efficacy of antibiotic agents. Conditions: expected efficacy against Streptococcus agalactiae.
Test [71] relates to Streptococcus pneumoniae. Briefly: Expected efficacy of antibiotic agents. The conditions noted are these: expected efficacy against Streptococcus pneumoniae.
Test [72] deals with Streptococcus pyogenes. Briefly: Expected efficacy of antibiotic agents. The conditions noted are these: expected efficacy against Streptococcus pyogenes.
Test [73] has as its system Viridans group streptococci. In words: Expected efficacy of antibiotic agents. Conditions: expected efficacy against Viridans group streptococci.

`C[C@@H]1[C@H](O)[C@@H](C)/C=C/C=C/C=C/C=C/C=C/C=C/C=C/[C@H](O[C@@H]2O[C@H](C)[C@@H](O)[C@H](N)[C@@H]2O)C[C@@H]2O[C@](O)(C[C@@H](O)C[C@@H](O)[C@H](O)CC[C@@H](O)C[C@@H](O)CC(=O)O[C@H]1C)C[C@H](O)[C@H]2C(=O)O` [Amphotericin, amphotericin b]: the Efficacy entry in test [1], in test [2], in test [3], in [4], in [5] and in test [6] was “yes” throughout. In addition, the Efficacy entry in test [7], in [8], in [9], in test [10], in [11] and in test [12] was “yes” each time.

In the case of `OC(Cn1cncn1)(Cn1cncn1)c1ccc(F)cc1F` [Fluconazole], the Efficacy entry in [1], in test [2], in test [5], in test [6], in test [7] and in test [8] was “yes” throughout. Further, the Efficacy entry in test [9] was “yes”.

Consider `C/C(=C\C(=O)OCCCCCCCCC(=O)O)C[C@@H]1OC[C@H](C[C@@H]2O[C@H]2[C@@H](C)[C@@H](C)O)[C@@H](O)C1O` (some centres unmarked) [Mupirocin], for which the “activity against gram-positive staphylococci and streptococci” value in test [13] is reported as “excellent activity”.

`CN[C@H](CC(C)C)C(=O)N[C@H]1C(=O)N[C@@H](CC(N)=O)C(=O)N[C@H]2C(=O)N[C@H]3C(=O)N[C@H](C(=O)N[C@H](C(=O)O)c4cc(O)cc(O)c4-c4cc3ccc4O)[C@H](O)c3ccc(c(Cl)c3)Oc3cc2cc(c3O[C@@H]2O[C@H](CO)[C@@H](O)[C@H](O)[C@H]2O[C@H]2C[C@](C)(N)[C@H](O)[C@H](C)O2)Oc2ccc(cc2Cl)[C@H]1O` [Vancomycin]: the Efficacy entry in test [14] is reported as “no”; in [15] it was “yes”; in test [16], “no”; in test [17], “no”; in test [18], “no”; in test [19], “no”. Besides, the Efficacy entry in test [20], in [21], in [22], in test [23], in test [24] and in test [25] was “no” throughout. Besides, the Efficacy entry in test [26], in test [27], in test [28], in test [29], in test [30] and in [31] was “no” in each case. Further, the Efficacy result in test [32], in test [33], in [34], in test [35], in [36] and in test [37] was “no” in each case. Besides, the Efficacy result in test [38], in test [39], in test [40], in [41], in test [42] and in test [43] was “no” each time. Besides, the Efficacy result in test [44], in [45], in test [46], in test [47], in test [48] and in test [49] was “no” each time. The Efficacy entry in [50], in [51], in [52], in [53], in [54] and in [55] was “no” each time. Also, the Efficacy result was “no” in test [56]; “no” in test [57]; “no” in test [58]; “no” in test [59]; “no” in [60]; “yes” in test [61]. Besides, the Efficacy entry is “yes” in test [62]; “yes” in test [63]; “yes” in test [64]; “yes, not VRE” in test [65]; “yes” in test [66]; “yes” in test [67]. The Efficacy result in [68], in [69], in test [70], in [71], in test [72] and in [73] was “yes” throughout.
